Test results taken from patent US6458351B2, “Naturally extracted and synthetic hypoglycemic or hypolipidemic compositions” (priority 1999, dated 2002).

Legend:
[1] = test system: yeast cells (Yeast strain Carlsbergensis); test: Yeast fermentation assay (rate of CO2 production under anaerobic conditions); type: cell-based, S. carlsbergensis; settings: synthetic chromium complexes; for Activity in yeast fermentation assay, CO2 production (in words): different concentrations
Description: The cells were kept on a solid chromium depleted medium that contained 6.7 g yeast nitrogen base, 20 g of glucose, and 18 g agar per liter. Cells were grown over night in a liquid medium without Cr. Yeast cells were harvested during stationary phase, washed twice and resuspended in 0.1M phosphate buffer pH 5.7. An aliquot of 3×10^8 cells/ml was anaerobically incubated at 30° C. in Warburg vessels in the presence of 10 mM glucose and the examined fraction of GTF extracted from yeast. Enhancement of fermentation rate by natural or synthetic chromium compounds was measured.
Yeast cells were grown over night in liquid medium without Cr. Yeast cells were harvested during stationary phase, washed twice and resuspended in 0.1M phosphate buffer pH 5.7. An aliquot of 3×10^7 cells/ml was anaerobically incubated at 30° C. in Warburg vessels in the presence of 10 mM glucose and the examined fractions extracted from Saltbush.
The activity of the synthetic chromium complexes was examined in the yeast fermentation assay as described above. All the complexes were tested by adding samples of the subject complex, and measuring the rate of CO2 production.

[2] = test system: streptozoatocin diabetic rats; test: Effect on insulin activity / blood glucose in streptozotocin diabetic rats; type: in vivo; settings: single dose; insulin at marginal dose 0.005-0.025 mg/Kg body weight
Description: Sprague Dawly male rats weighing 120-130 g were injected subcutanously with a single dose of streptozotocin (60 mg/kg body weight) in 0.5 ml citrate buffer, 0.05 M pH 4.5. Plasma glucose concentrations were measured seven days later using commercial glucometer. Animals with blood glucose higher than 250 mg/dl were chosen for the subsequent test with fractions purified from yeast extract or the Saltbush, as described in section 5.1 and 5.2.
When a marginal dose of insulin (0.005-0.025 mg/Kg body weight ) was injected into streptozoatocin diabetic rats a decrease of 10%-15% in blood glucose was observed after the injection. A single dose of active chromium fraction extraction from yeast decreased blood glucose by 15%-20%. A combination of both insulin and chromium containing natural compound from yeast created much higher reduction in blood glucose of 40%-45% reduction.

Compound | Activity in yeast fermentation assay, CO2 production (in words) [1] | Activity in yeast fermentation assay, CO2 production (in words) ([1]; listed as Chromium axcorbate) | Inhibition of yeast fermentation at high concentrations (in words) [1] | Decrease in blood glucose [2]
Chromium Ascorbate [Cr-Asc] | most active | enhances the production of CO2 | without any inhibition | –
CC(=O)N[C@@H](CS)C(=O)O.[Cr] [Cr-NAC, Chromium N-Acetyl Cysteine] | increases the production of CO2 | – | partial inhibition | –
insulin | – | – | – | 10%-15%
N[C@@H](CCC(=O)N[C@@H](CS)C(=O)NCC(=O)O)C(=O)O.[Cr] [Cr-GSH, Chromium-Glutathione] | increases the production of CO2 | – | partial inhibition | –
